# Source: ChEMBL document CHEMBL3856279, “The discovery of new cytotoxic pyrazolopyridine derivatives” (Bioorg Med Chem Lett, 2016)
# Columns and labels:
# [1] = Antiproliferative activity against human SKOV3 cells after 48 hrs by MTS assay; assay type: functional, cell-based; conditions: SK-OV-3, 48 h
# [2] = Antiproliferative activity against human MIAPaCa2 cells after 48 hrs by MTS assay; assay type: functional, cell-based; conditions: MIA PaCa-2, 48 h
# [3] = Antiproliferative activity against human WI38 cells after 48 hrs by MTS assay; assay type: cell-based; conditions: WI-38, 48 h
# [4] = Cell cycle arrest in human PC3 cells assessed as accumulation at G2/M phase at antiproliferative IC50 after 48 hrs by propidium iodide staining based FACS analysis (reference value: 24 +/- 2.9%); assay type: functional; conditions: PC-3
# [5] = Cell cycle arrest in human PC3 cells assessed as accumulation at S phase at antiproliferative IC50 after 48 hrs by propidium iodide staining based FACS analysis (reference value: 37.7 +/- 2.2%); assay type: functional; conditions: PC-3
# [6] = Induction of apoptosis in human PC3 cells assessed as appearance of apoptotic nuclei at antiproliferative IC50 after 48 hrs by propidium iodide staining based FACS analysis (reference value: 0.7 +/- 0.1%); assay type: functional, PC-3
# [7] = Antiproliferative activity against human PC3 cells after 48 hrs by MTS assay; assay type: functional, cell-based; conditions: PC-3, 48 h
# [8] = Cell cycle arrest in human PC3 cells assessed as accumulation at G0/G1 phase at antiproliferative IC50 after 48 hrs by propidium iodide staining based FACS analysis (reference value: 38.3 +/- 0.7%); assay type: functional; conditions: PC-3
# [9] = Antiproliferative activity against human A2058 cells after 48 hrs by MTS assay; assay type: functional, cell-based; conditions: A2058, 48 h
# [10] = Antiproliferative activity against human DU145 cells after 48 hrs by MTS assay; assay type: functional, cell-based; conditions: DU-145, 48 h
Structure (SMILES),IC50 [1] [µM],IC50 [2] [µM],IC50 [3] [µM],Activity [4] [%],Activity [5] [%],Activity [6] [%],IC50 [7] [µM],Activity [8] [%],IC50 [9] [µM],IC50 [10] [µM]
c1ccc(Nc2nccc3cn[nH]c23)cc1,> 50,> 50,> 50,,,,,,,
COc1cc(Nc2nccc3c(-c4ccccc4)n[nH]c23)cc(OC)c1OC,0.73,3.8,14.9,19.2,0,25.8,0.38,80.8,0.89,0.92
Clc1cc2c(-c3ccccc3)n[nH]c2c(Nc2ccccc2)n1,2.5,4.3,23.4,,,,,,,
Clc1cc2cn[nH]c2c(Nc2ccccc2)n1,34.2,36.2,> 50,,,,,,,
COc1cc(Nc2nc(Cl)cc3cn[nH]c23)cc(OC)c1OC,13.1,16.2,> 50,,,,,,,
COc1cc(Nc2nc(Cl)cc3c(-c4ccccc4)n[nH]c23)cc(OC)c1OC,5.9,6.7,21.9,23.5,30.3,0.9,15,46.2,,
COc1cc(Nc2nccc3c(C(C)C)n[nH]c23)cc(OC)c1OC,22.9,10,> 50,,,,,,,
COc1cc(Nc2nc(Cl)cc3c(C(C)C)n[nH]c23)cc(OC)c1OC,5.6,6.1,43.8,,,,,,,
CC(C)c1n[nH]c2c(Nc3ccccc3)nccc12,48.3,41.2,> 50,,,,,,,
CC(C)c1n[nH]c2c(Nc3ccccc3)nc(Cl)cc12,> 50,21.5,38.7,,,,,,,
COc1cc(Nc2nccc3cn[nH]c23)cc(OC)c1OC,> 50,> 50,> 50,,,,,,,
c1ccc(Nc2nccc3c(-c4ccccc4)n[nH]c23)cc1,22.1,9,24.7,,,,,,,
